Common to all, as to format: cell-based
One assay concerns the target T1, GRK2 (Homo sapiens, UniProt P25098).
T1 sequence (P25098 1-689): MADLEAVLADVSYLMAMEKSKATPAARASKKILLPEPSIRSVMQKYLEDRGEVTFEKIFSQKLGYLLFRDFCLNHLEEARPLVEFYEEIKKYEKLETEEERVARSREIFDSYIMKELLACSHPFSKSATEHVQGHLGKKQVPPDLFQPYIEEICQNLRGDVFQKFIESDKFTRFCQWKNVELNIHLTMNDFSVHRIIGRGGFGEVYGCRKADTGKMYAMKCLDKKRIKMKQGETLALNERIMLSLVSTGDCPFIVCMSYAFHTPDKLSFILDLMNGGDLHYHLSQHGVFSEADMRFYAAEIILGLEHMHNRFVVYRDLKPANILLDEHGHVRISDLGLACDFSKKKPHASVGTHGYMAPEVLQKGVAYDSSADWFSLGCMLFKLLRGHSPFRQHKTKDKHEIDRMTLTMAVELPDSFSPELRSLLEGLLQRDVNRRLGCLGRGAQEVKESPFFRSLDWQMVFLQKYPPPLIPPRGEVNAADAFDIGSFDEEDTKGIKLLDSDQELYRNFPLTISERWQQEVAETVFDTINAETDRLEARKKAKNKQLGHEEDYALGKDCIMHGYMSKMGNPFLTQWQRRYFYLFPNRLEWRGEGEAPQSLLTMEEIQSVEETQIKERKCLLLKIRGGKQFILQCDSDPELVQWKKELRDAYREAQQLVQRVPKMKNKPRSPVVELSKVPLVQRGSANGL
Kind of assay: GRK2 Degradation Assay and Western Blot in PAXF1657 cells. More on the design: endogenous in cells; host or cells: PAXF1657. Particulars: for inhibition at 0.3 µM: Conc 0.3 uM; for inhibition at 0.3 µM / inhibition at 1 µM / inhibition at 3 µM: read-out: Degradation Assay - 3 point: Degradation (%); for inhibition at 1 µM: Conc 1 uM; for inhibition at 3 µM: Conc 3 uM. How it is done:
General Protocol: Degradation Assay and Western Blot. PAXF1657 cells were plated in 6-well, 24-well plates or 60 mm tissue culture treated dishes and incubated at 37° C. until 70% confluency. The media was aspirated, and the cells were treated with fresh media containing the compounds in the concentration range of 0 μM to 10 μM for a period of 6 to 24 hours. At the desired time points the cells were washed twice with cold PBS and lysed with lysis buffer (ice cold PBS+1% NP40 with 1/100 protease/phosphatase inhibitors) on ice for 8 mins followed by sonication at 70% intensity pulses for 10 seconds. The cells were centrifuged at 20000 g for 8 min at 4° C. The supernatants were collected and stored at −80° C.
Samples were mixed with NuPAGE LDS sample buffer and NuPAGE sample reducing buffer (3×), vortexed and heated at 95° C. for 10 min, and then analyzed by SDS-PAGE (NuPAGE 4-12%) followed by transfer to nitrocellulose membrane. […] The membranes were washed three times with TBST and incubated with GRK2 or R-actin antibodies in 5% milk in TBST at 4° C. overnight. The membranes were washed three times with TBST and incubated with anti-mouse IgG-HRP or anti-rabbit IgG-HRP at room temperature for 2 hours in 5% milk in TBST. The membranes were washed three times with TBST and developed with ECL Dura, ECL femto or ECL atto substrates.
(Immunoblotting shows a protein as a band on a membrane.)

In the next assay the test system is PAXF1657 EV. Kind of assay: 7-day cellular proliferation assay (CellTiter-Glo), PAXF1657 EV. The note with it: proliferation, read-out: GeoMean IC50 (UM) PAXF1657 EV. As to the method:
(§1) In order to identify compounds specific for GRK2, we generated two isogenic cell line pairs of the pancreatic cancer cell line PAXF1657, a pair of cells stably overexpressing GRK2 cDNA or the control empty vector and a cell line pair of PAXF1657 GRK2 knockout clonal cells versus non-targeting control clonal cells.
(§2) Proliferation Assay: Cellular anti-proliferative activity of compounds was assessed by using the pancreatic cancer cell line, PAXF1657, stably overexpressing GRK2 cDNA or the control empty vector, as well as the parental urinary bladder cancer cell line, 5637. In addition, we also took advantage of GRK2 knockout cell lines that were generated via CRISPR. Cell lines were seeded into tissue culture treated, white-walled, 96-well plates at a density of 500 cells/well in RPMI1640 media supplemented with 10% H.I. FBS and penicillin/streptomycin. Plates were incubated overnight at 37° C., 5% CO2 to allow cells to adhere to the wells. GRK2 inhibitors were added to the cells using a 10-point dilution series with a final concentration ranging from 30 μM-0.0002 μM in 0.3% DMSO. At the time of compound addition, a set of plates, that were not treated with compounds, were collected and cell viability was measured using CellTiter-Glo (Promega). CellTiter-Glo reagent was added to the designed plates and luminescence was measuring using a Biotek Synergy plate reader. The compound treated cells were incubated for 3 days at 37° C., 5% CO2. The media was then aspirated from each well and replaced with fresh media containing GRK2 inhibitors. The compound treated cells were then incubated for an additional 4 days at 37° C., 5% CO2. Cell viability was assessed and at end of the 7-day compound treatment by CellTiterGlo.
For orientation: In ATP-based viability assays light output follows the ATP content of the culture.

The subject of a further assay is PAXF1657 KO Clone #4. Kind of assay: 7-day cellular proliferation assay (CellTiter-Glo), PAXF1657 KO Clone #4. Particulars: proliferation, read-out: GeoMean IC50 (uM) PAXF1657 KO Clone #4. As to the method: as §1, §2

As usually defined, the IC50 is the concentration needed to halve the response being measured.

For the compound `Cn1c(CNc2cccc(C(=O)N[C@H]3CCOc4ccc(OCCCCCCOCCOCCOCCCCCC(=O)Nc5cccc6c5CN(C5CCC(=O)NC5=O)C6=O)cc43)c2)nnc1-c1ccncn1` (stereo partly drawn) [Compound D156, N-((4S)-6-(6-(2-(2-(6-(2-(2,6-dioxopiperidin-3-yl)-1-oxoisoindolin-4-ylamino)-6-oxohexyloxy)ethoxy)ethoxy)hexyloxy)chroman-4-yl)-3-((4-methyl-5-(pyrimidin-4-yl)-4H-1,2,4-triazol-3-yl)methylamino)benzamide], on GRK2, the inhibition at 0.3 µM was -8.15%, the inhibition at 1 µM was 2.96% and the inhibition at 3 µM was 11.5%. The concentration for half-maximal inhibition (IC50) in the assay on PAXF1657 EV turned out to be 2.15 µM. Moreover, the IC50 in the assay with PAXF1657 KO Clone #4 is over 30 µM.

In the case of `C[C@@H](NC(=O)c1cccc(NCc2nnc(-c3ccncn3)n2C)c1)c1cccc(OCCCCCn2cc(CCCC(=O)Nc3cccc4c3CN(C3CCC(=O)NC3=O)C4=O)nn2)c1` (stereo partly shown) [Compound D157], on GRK2, the inhibition at 0.3 µM amounted to 13.5%, the inhibition at 1 µM turned out to be 11.1% and the inhibition at 3 µM was determined as 42.3%. For the same compound, in the assay on PAXF1657 EV, the IC50 is 7.39 µM. Besides, in the assay on PAXF1657 KO Clone #4, the concentration for half-maximal inhibition (IC50) was over 30 µM.

Consider `C[C@@H](NC(=O)c1cccc(NCc2nnc(-c3ccncn3)n2C)c1)c1cccc(OCCCCCCCn2cc(CCCC(=O)Nc3cccc4c3CN(C3CCC(=O)NC3=O)C4=O)nn2)c1` (stereo partly drawn) [Compound D158, N-((1R)-1-(3-(7-(4-(4-(2-(2,6-dioxopiperidin-3-yl)-1-oxoisoindolin-4-ylamino)-4-oxobutyl)-1H-1,2,3-triazol-1-yl)heptyloxy)phenyl)ethyl)-3-((4-methyl-5-(pyrimidin-4-yl)-4H-1,2,4-triazol-3-yl)methylamino)benzamide], for which, on GRK2, the inhibition at 0.3 µM was 42.9%, the inhibition at 1 µM is 65.8% and the inhibition at 3 µM was 81.9%. For the same compound, the IC50 with PAXF1657 EV was found to be 1.71 µM. Also, the half-inhibitory concentration (IC50) in the assay with PAXF1657 KO Clone #4 was over 30 µM.

Consider `C[C@@H](NC(=O)c1cccc(NCc2nnc(-c3ccncn3)n2C)c1)c1cccc(OCCCCCCn2cc(CCC(=O)Nc3cccc4c3CN(C3CCC(=O)NC3=O)C4=O)nn2)c1` (stereo partly shown) [Compound D159], for which, at GRK2, the inhibition at 0.3 µM worked out at 10%, the inhibition at 1 µM was 46.3% and the inhibition at 3 µM amounted to 64.5%. For the same compound, in the assay with PAXF1657 EV, the IC50 worked out at 18.2 µM. Moreover, the IC50 in the assay on PAXF1657 KO Clone #4 is over 30 µM.

For the compound `Cc1ncsc1-c1ccc(CNC(=O)[C@@H]2C[C@@H](O)CN2C(=O)[C@@H](NC(=O)COCCCOCCCCCOc2ccc3c(c2)[C@H](NC(=O)c2cccc(NCc4nnc(-c5ccncn5)n4C)c2)CCO3)C(C)(C)C)cc1` [Compound D161], at GRK2, the inhibition at 0.3 µM was 15%, the inhibition at 1 µM came out at 23% and the inhibition at 3 µM was 30%. The IC50 with PAXF1657 EV worked out at 1.56 µM. The half-maximal inhibitory concentration (IC50) with PAXF1657 KO Clone #4 was 7.51 µM.

Consider `C[C@@H](NC(=O)c1cccc(NCc2nnc(-c3ccncn3)n2C)c1)c1cccc(OCCCCCn2cc(CCCCC(=O)Nc3cccc4c3CN(C3CCC(=O)NC3=O)C4=O)nn2)c1` (stereo partly shown) [Compound D164], for which, on GRK2, the inhibition at 0.3 µM came out at 17.1%, the inhibition at 1 µM stood at 14.1% and the inhibition at 3 µM was determined as 42.6%. Also, the 50% inhibitory concentration (IC50) with PAXF1657 EV came to 5.09 µM. Besides, the concentration for half-maximal inhibition (IC50) in the assay with PAXF1657 KO Clone #4 is over 30 µM.

As to `C[C@@H](NC(=O)c1cccc(NCc2nnc(-c3ccncn3)n2C)c1)c1cccc(OCCCCCCn2cc(CCCC(=O)Nc3cccc4c3CN(C3CCC(=O)NC3=O)C4=O)nn2)c1` (stereo partly shown) [Compound D165], on GRK2, the inhibition at 0.3 µM was -1.61%, the inhibition at 1 µM came to 35.5% and the inhibition at 3 µM stood at 70.1%. In addition, the IC50 in the assay with PAXF1657 EV came out at 2.6 µM. The IC50 in the assay on PAXF1657 KO Clone #4 was over 30 µM.

With `C[C@@H](NC(=O)c1cccc(NCc2nnc(-c3ccncn3)n2C)c1)c1cccc(OCCCCCCn2cc(CCCCC(=O)Nc3cccc4c3CN(C3CCC(=O)NC3=O)C4=O)nn2)c1` (stereo partly shown) [Compound D166], at GRK2, the inhibition at 0.3 µM came to 12.1%, the inhibition at 1 µM came out at 32.4% and the inhibition at 3 µM was found to be 68.1%. Moreover, the IC50 in the assay on PAXF1657 EV worked out at 1.91 µM. In addition, in the assay on PAXF1657 KO Clone #4, the half-inhibitory concentration (IC50) is over 30 µM.

As to `Cn1c(CNc2cccc(C(=O)NCc3ccc(OCCCCCOCCCOCC(=O)Nc4cccc5c4CN(C4CCC(=O)NC4=O)C5=O)cc3)c2)nnc1-c1ccncn1` (stereo not shown) [Compound D167, N-(4-(5-(3-(2-(2-(2,6-dioxopiperidin-3-yl)-1-oxoisoindolin-4-ylamino)-2-oxoethoxy)propoxy)pentyloxy)benzyl)-3-((4-methyl-5-(pyrimidin-4-yl)-4H-1,2,4-triazol-3-yl)methylamino)benzamide], on GRK2, the inhibition at 0.3 µM was found to be 33.3%, the inhibition at 1 µM worked out at 57.4% and the inhibition at 3 µM was found to be 55.2%. Besides, the concentration for half-maximal inhibition (IC50) in the assay with PAXF1657 EV turned out to be 2.44 µM. The IC50 with PAXF1657 KO Clone #4 is over 30 µM.

As to `Cc1ncsc1-c1ccc(CNC(=O)[C@@H]2C[C@@H](O)CN2C(=O)[C@@H](NC(=O)COCCCOCCCCCOc2ccc(CNC(=O)c3cccc(NCc4nnc(-c5ccncn5)n4C)c3)cc2)C(C)(C)C)cc1` [Compound D168], at GRK2, the inhibition at 0.3 µM worked out at 0.276%, the inhibition at 1 µM is -12% and the inhibition at 3 µM was -22%. Besides, in the assay with PAXF1657 EV, the IC50 was over 1.88 µM. Besides, in the assay with PAXF1657 KO Clone #4, the IC50 was 6.03 µM.

`Cc1ncsc1-c1ccc(CNC(=O)[C@@H]2C[C@@H](O)CN2C(=O)[C@@H](NC(=O)COCCCOCCCCCOc2cccc([C@@H](C)NC(=O)c3cccc(NCc4nnc(-c5ccncn5)n4C)c3)c2)C(C)(C)C)cc1` [Compound D182, (2S,4R)-1-((S)-3,3-dimethyl-2-(2-(3-((5-(3-((R)-1-(3-(((4-methyl-5-(pyrimidin-4-yl)-4H-1,2,4-triazol-3-yl)methyl)amino)benzamido)ethyl)phenoxy)pentyl)oxy)propoxy)acetamido)butanoyl)-4-hydroxy-N-(4-(4-methylthiazol-5-yl)benzyl)pyrrolidine-2-carboxamide]: at GRK2, the inhibition at 0.3 µM is 29.1%, the inhibition at 1 µM came out at 29.5% and the inhibition at 3 µM worked out at 21.3%. In addition, the DC50 at GRK2 (PAXF1657, 24 h, read-out: Degradation Assay - Full Dose Response: IC50 (uM) [cell line: PAXF1657, time point: 24 h]) is 0.38 µM. Further, in the assay with PAXF1657 EV, the IC50 turned out to be 0.12 µM. In addition, in the assay on PAXF1657 KO Clone #4, the IC50 was determined as 10 µM.

`Cc1ncsc1-c1ccc(CNC(=O)[C@@H]2C[C@@H](O)CN2C(=O)C(NC(=O)CCCCCOCCOCCOCCCCCCOc2ccc3c(c2)[C@H](NC(=O)c2cccc(NCc4nnc(-c5ccncn5)n4C)c2)CCO3)C(C)(C)C)cc1` (stereo partly drawn) [Compound D186, (2S,4R)-1-((R)-2-tert-butyl-22-((R)-4-(3-((4-methyl-5-(pyrimidin-4-yl)-4H-1,2,4-triazol-3-yl)methylamino)benzamido)chroman-6-yloxy)-4-oxo-10,13,16-trioxa-3-azadocosane)-4-hydroxy-N-(4-(4-methylthiazol-5-yl)benzyl)pyrrolidine-2-carboxamide]: at GRK2, the inhibition at 0.3 µM was found to be 20%, the inhibition at 1 µM came to 36.3% and the inhibition at 3 µM was -32.6%. The IC50 with PAXF1657 EV came to 0.56 µM. Further, the IC50 in the assay on PAXF1657 KO Clone #4 was 5.09 µM.
